Measurements: patent US9079895B2, “Morpholino compounds, uses and methods” (University of Dundee, priority 2012, dated 2015)

How the values were obtained:
Conditions in all cases: average of at least two experiments
5HT1d receptor = 5HT1d receptor (Homo sapiens (Human), UniProt P28221); test: Secondary radioligand binding assay, 5HT1d; parameters: key to Ki 5HT1d: “—” indicates that a binding interaction was not detected;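 also: competition binding against a radioligand on membranes from transfected cell lines, 1.5 h at room temperature, filter-retained radioactivity counted by liquid scintillation, total binding plotted versus log competitor concentration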
Chain of 5HT1d receptor (P28221 whole entry): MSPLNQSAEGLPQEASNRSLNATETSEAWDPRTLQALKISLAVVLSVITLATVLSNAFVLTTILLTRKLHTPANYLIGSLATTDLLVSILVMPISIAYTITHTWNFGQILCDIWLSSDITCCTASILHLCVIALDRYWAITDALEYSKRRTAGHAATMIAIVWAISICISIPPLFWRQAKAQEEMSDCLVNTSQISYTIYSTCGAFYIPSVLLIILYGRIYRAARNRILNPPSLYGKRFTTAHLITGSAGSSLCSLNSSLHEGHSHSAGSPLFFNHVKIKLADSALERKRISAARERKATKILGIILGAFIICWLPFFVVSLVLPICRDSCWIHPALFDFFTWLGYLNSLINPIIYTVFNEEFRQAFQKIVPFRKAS

5HT1e receptor = 5HT1e receptor (Homo sapiens (Human), UniProt P28566); test: Secondary radioligand binding assay, 5HT1e; parameters: key: “—” indicates that a binding interaction was not detected;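 also: competition binding against a radioligand on membranes from transfected cell lines, 1.5 h at room temperature, bound radioactivity counted by liquid scintillation after filtration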
Chain of 5HT1e receptor (P28566 whole entry): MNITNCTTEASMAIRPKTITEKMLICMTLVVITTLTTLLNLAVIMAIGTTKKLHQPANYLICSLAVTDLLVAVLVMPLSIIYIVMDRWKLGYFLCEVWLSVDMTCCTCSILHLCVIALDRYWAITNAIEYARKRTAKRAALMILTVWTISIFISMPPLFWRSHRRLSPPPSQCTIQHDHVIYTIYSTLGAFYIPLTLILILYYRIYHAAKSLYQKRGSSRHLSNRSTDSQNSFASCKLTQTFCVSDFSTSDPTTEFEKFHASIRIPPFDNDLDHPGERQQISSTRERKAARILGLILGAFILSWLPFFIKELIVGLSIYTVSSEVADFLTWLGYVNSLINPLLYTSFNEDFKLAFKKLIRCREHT
Protocol: (§3) Assay Buffer: Standard Binding Buffer (50 mM Tris-HCl, 10 mM MgCl2, 1 mM EDTA, pH 7.4)
(§4) Membrane Fraction Source: Transiently or stably transfected cell lines (e.g., HEK293, COS, CHO, NIH3T3)
(§5) Radioligand is diluted to five times the assay concentration (see Table 18) in Standard Binding Buffer. Typically, the assay concentration of radioligand is a value between one half the KD and the KD of a particular radioligand at its target. 50 μl aliquots of radioligand are dispensed into the wells of a 96-well plate containing 100 μl of Standard Binding Buffer. Then, duplicate 50 μl aliquots of the test and reference compound dilutions are added.
(§6) The 250 μl reactions are incubated at room temperature and shielded from light (to prevent photolysis of light-sensitive ligands) for 1.5 hours, then harvested by rapid filtration onto Whatman GF/B glass fiber filters pre-soaked with 0.3% polyethyleneimine using a 96-well Brandel harverster. Four rapid 500 μl washes are performed with chilled Standard Binding Buffer to reduce non-specific binding. Filters are placed in 6 ml scintillation tubes and allowed to dry overnight. The next day, 4 ml of EcoScint scintillation cocktail (National Diagnostics) are added to each tube. The tubes are capped, labeled, and counted by liquid scintillation counting. […] The filter mats are dried, then scintillant is melted onto the filters and the radioactivity retained on the filters is counted in a Microbeta scintillation counter.
(§7) Raw data (dpm) representing total radioligand binding (i.e. specific+non-specific binding) are plotted as a function of the logarithm of the molar concentration of the competitor (i.e. test or reference compound).

5HT2b receptor = 5HT2b receptor (Homo sapiens (Human), UniProt P41595); test: Secondary radioligand binding assay, 5HT2b;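 also: competition binding against a radioligand on membranes from transfected cell lines, 1.5 h incubation at room temperature, filter-retained radioactivity counted by liquid scintillation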
Chain of 5HT2b receptor (P41595 whole entry): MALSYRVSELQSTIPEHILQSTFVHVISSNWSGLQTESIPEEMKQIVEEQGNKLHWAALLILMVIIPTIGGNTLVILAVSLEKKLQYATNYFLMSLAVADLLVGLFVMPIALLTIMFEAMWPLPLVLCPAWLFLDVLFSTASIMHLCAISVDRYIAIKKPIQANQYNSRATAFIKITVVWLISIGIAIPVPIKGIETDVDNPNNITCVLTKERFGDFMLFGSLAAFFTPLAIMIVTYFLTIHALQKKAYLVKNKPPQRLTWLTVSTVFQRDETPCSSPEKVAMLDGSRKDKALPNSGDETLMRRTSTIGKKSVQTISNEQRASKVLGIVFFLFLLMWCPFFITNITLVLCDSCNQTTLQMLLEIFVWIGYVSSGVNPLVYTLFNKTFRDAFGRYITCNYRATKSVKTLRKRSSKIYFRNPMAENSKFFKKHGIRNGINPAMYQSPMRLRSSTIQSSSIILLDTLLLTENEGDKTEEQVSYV

5HT3 receptor = 5HT3 receptor (Homo sapiens (Human), UniProt P46098); test: Secondary radioligand binding assay, 5HT3; parameters: key: “—” indicates that a binding interaction was not detected;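 also: radioligand competition binding on membranes from transfected cell lines, 1.5 h incubation at room temperature, filter-retained radioactivity measured by liquid scintillation counting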
Chain of 5HT3 receptor (P46098 24-478): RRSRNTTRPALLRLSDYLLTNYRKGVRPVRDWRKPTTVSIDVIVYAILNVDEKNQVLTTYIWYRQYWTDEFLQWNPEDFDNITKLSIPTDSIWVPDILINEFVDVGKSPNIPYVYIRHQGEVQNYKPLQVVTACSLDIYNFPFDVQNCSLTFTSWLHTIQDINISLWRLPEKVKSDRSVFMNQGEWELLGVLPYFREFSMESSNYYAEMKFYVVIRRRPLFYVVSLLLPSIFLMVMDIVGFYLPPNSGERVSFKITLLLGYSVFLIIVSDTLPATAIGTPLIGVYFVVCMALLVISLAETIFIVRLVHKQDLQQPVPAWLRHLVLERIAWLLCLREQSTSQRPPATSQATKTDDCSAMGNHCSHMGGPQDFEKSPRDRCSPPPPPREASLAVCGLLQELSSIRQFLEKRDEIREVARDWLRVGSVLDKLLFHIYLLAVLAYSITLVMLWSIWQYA
Protocol: Secondary Radioligand Binding Assays
as §3, §4, §5, §6, §7

5HT5 receptor = 5HT5 receptor (Homo sapiens (Human), UniProt P47898); test: Secondary radioligand binding assay, 5HT5; parameters: key: “—” indicates that a binding interaction was not detected;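 also: competitive radioligand displacement on membranes from transfected cell lines, incubated at room temperature in the dark, filter-retained radioactivity counted by liquid scintillation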
Chain of 5HT5 receptor (P47898 whole entry): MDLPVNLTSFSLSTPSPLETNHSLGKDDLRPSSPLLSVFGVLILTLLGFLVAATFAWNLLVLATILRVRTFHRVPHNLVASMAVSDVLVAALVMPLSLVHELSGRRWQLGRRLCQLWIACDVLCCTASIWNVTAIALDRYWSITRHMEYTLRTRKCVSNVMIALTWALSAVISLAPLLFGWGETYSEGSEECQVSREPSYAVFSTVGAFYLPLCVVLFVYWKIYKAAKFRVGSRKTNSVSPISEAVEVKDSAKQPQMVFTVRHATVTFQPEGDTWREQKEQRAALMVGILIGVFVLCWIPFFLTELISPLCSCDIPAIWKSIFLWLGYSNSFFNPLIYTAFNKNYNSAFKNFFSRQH

5HT6 receptor = 5HT6 receptor (Homo sapiens (Human), UniProt P50406); test: Secondary radioligand binding assay, 5HT6; parameters: key: “—” indicates that a binding interaction was not detected;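 also: competition displacement of radioligand from membranes of transfected cell lines expressing the receptor, 1.5 h at room temperature, bound radioactivity counted by scintillation after filtration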
Chain of 5HT6 receptor (P50406 whole entry): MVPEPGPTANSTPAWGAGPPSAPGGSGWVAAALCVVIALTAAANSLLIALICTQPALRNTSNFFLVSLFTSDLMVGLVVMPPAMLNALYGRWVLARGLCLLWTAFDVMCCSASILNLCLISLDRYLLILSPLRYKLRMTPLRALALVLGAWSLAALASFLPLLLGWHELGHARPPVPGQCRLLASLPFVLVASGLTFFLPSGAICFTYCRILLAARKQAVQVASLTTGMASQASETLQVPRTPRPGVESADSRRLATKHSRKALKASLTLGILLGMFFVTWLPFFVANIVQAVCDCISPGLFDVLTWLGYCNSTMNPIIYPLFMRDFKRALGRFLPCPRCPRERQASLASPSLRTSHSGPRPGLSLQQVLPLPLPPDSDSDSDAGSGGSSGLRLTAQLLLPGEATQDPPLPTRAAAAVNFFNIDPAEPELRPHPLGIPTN

5HT7 receptor = 5HT7 receptor (Homo sapiens (Human), UniProt P34969); test: Secondary radioligand binding assay, 5HT7;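 also: competition of test compound with radioligand for binding to membranes from transfected cell lines, 1.5 h incubation at room temperature, filter-bound radioactivity read by liquid scintillation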
Chain of 5HT7 receptor (P34969 whole entry): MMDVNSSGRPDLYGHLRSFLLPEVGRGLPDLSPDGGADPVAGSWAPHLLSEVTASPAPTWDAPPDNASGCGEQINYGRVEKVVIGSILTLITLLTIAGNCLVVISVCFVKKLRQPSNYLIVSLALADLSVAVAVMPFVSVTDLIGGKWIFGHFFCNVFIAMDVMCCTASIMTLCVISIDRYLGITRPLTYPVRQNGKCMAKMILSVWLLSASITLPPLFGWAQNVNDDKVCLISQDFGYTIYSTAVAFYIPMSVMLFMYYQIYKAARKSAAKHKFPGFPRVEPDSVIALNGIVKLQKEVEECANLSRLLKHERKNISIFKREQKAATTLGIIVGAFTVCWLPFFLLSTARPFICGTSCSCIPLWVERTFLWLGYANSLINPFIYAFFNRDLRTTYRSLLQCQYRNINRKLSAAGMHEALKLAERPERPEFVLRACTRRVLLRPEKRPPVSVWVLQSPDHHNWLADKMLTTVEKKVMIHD
Protocol: as §3, §4, §5, §6, §7

[1] = molecular target: Alpha1A adrenergic receptor (Homo sapiens (Human), UniProt P35348); test: Secondary radioligand binding assay, Alpha1A; parameters: key to Ki Alpha1A: “—” indicates that a binding interaction was not detected
Chain of Alpha1A adrenergic receptor (P35348 whole entry): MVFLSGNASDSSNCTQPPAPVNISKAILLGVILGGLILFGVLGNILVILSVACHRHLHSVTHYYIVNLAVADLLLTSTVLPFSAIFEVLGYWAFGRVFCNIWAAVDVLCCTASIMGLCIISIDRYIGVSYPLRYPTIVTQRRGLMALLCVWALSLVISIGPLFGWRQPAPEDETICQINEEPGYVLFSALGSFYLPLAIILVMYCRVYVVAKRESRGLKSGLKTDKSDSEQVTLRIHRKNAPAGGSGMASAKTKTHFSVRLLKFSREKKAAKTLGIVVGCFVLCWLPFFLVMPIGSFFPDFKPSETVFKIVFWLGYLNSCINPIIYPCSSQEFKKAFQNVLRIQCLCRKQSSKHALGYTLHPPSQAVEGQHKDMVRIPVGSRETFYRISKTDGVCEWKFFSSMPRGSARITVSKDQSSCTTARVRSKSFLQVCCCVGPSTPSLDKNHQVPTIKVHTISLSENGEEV
In short: (§1)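 Competition binding on membranes from transfected cell lines in 20 mM Tris-HCl, 145 mM NaCl, pH 7.4, with radioligand and eleven test-compound dilutions. Bound ligand collected on filters, washed four times with chilled distilled water, and counted; total binding (dpm) plotted against log competitor concentration.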

[2] = molecular target: Alpha1B adrenergic receptor (Homo sapiens (Human), UniProt P35368); test: Secondary radioligand binding assay, Alpha1B; parameters: key to Ki Alpha1B: “—” indicates that a binding interaction was not detected
Chain of Alpha1B adrenergic receptor (P35368 whole entry): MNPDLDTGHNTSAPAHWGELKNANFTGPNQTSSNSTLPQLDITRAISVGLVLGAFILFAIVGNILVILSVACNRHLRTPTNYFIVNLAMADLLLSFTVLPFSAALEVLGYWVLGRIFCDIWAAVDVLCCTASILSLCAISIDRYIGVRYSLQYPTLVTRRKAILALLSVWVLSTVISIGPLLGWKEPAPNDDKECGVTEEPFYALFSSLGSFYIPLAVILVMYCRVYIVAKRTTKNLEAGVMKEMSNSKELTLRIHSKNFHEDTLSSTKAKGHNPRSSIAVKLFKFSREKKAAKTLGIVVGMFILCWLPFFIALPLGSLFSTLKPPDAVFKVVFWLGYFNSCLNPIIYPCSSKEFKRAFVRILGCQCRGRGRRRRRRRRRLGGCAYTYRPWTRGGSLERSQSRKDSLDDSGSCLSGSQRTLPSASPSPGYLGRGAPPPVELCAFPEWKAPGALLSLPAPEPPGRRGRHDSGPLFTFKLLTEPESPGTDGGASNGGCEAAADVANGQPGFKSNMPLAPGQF
In short: as §1

dopamine D1 receptor = dopamine D1 receptor (Homo sapiens (Human), UniProt P21728); test: Secondary radioligand binding assay, D1; parameters: key to Ki D1: “—” indicates that a binding interaction was not detected
In short: (§2)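 Competition binding on membranes from transfected cell lines (e.g. HEK293, COS, CHO, NIH3T3) in 50 mM HEPES, 50 mM NaCl, 5 mM MgCl2, 0.5 mM EDTA, pH 7.4.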

dopamine D2 receptor = dopamine D2 receptor (Homo sapiens (Human), UniProt P14416); test: Secondary radioligand binding assay, D2; parameters: key to Ki D2: “—” indicates that a binding interaction was not detected
Chain of dopamine D2 receptor (P14416 whole entry, species assumed): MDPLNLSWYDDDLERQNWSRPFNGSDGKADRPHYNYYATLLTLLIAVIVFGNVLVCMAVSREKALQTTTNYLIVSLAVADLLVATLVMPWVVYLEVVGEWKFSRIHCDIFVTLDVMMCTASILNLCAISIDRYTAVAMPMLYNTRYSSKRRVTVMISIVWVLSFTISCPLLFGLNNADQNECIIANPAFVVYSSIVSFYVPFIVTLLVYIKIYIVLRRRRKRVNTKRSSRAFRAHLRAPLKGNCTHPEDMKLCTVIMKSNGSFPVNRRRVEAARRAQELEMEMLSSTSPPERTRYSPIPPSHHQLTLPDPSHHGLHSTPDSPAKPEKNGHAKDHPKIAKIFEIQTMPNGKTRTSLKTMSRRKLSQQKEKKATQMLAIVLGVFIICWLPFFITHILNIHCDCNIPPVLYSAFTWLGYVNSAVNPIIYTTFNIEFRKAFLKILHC
In short: as §2

dopamine D3 receptor = dopamine D3 receptor (Homo sapiens (Human), UniProt P35462); test: Secondary radioligand binding assay, D3
Chain of dopamine D3 receptor (P35462 whole entry, species assumed): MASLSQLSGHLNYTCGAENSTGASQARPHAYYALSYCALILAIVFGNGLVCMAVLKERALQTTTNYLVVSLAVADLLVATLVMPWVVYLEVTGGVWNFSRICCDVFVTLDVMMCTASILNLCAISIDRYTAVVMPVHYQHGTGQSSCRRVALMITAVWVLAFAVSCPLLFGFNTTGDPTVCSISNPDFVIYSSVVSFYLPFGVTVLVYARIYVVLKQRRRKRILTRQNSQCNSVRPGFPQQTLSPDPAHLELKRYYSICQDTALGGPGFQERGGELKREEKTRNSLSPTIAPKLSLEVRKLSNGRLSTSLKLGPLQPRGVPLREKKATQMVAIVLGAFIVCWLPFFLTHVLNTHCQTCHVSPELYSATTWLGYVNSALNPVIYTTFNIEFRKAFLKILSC
In short: as §2

Cc1ncccc1OC[C@H]1CN(CCN2CCc3ccccc32)CCO1 [Compound 26r, (R)-4-(2-(Indolin-1-yl)ethyl)-2-(((2-methylpyridin-3-yl)oxy)methyl)morpholine]
Ki 5HT1d (5HT1d receptor): —
Ki 5HT1e (5HT1e receptor): —
Ki (5HT2b receptor): 3.17 µM
Ki 5HT3 (5HT3 receptor): —
Ki 5HT5 (5HT5 receptor): —
Ki 5HT6 (5HT6 receptor): —
Ki (5HT7 receptor): > 10 µM
Ki Alpha1A [1]: —
Ki Alpha1B [2]: —
Ki D1 (dopamine D1 receptor): —
Ki D2 (dopamine D2 receptor): —
Ki (dopamine D3 receptor): > 10 µM
